One molecule from PMC4176091, “Novel expression of Haemonchus contortus vaccine candidate aminopeptidase H11 using the free-living nematode Caenorhabditis elegans” (Veterinary Research, 2013) can be followed below.

Holding throughout (experiment): aminopeptidase assay, absorbance at […] nm
What all share (assay type): biochemical
Conditions in all cases: 0.5 mM substrate; 50 mM NaPO4, pH 5.5 and 7; 2 h at 37 °C then overnight at room temperature

In one test the target is T1, H11 (rH11, isoform H11) (Haemonchus contortus, UniProt Q10737).
T1 construct: soluble, expressed in C. elegans; N-terminal transmembrane domain (35 aa) replaced by Hmcp-6 signal peptide; C-terminal 10 aa His tag; cobalt resin
T1 sequence (Q10737 36-972): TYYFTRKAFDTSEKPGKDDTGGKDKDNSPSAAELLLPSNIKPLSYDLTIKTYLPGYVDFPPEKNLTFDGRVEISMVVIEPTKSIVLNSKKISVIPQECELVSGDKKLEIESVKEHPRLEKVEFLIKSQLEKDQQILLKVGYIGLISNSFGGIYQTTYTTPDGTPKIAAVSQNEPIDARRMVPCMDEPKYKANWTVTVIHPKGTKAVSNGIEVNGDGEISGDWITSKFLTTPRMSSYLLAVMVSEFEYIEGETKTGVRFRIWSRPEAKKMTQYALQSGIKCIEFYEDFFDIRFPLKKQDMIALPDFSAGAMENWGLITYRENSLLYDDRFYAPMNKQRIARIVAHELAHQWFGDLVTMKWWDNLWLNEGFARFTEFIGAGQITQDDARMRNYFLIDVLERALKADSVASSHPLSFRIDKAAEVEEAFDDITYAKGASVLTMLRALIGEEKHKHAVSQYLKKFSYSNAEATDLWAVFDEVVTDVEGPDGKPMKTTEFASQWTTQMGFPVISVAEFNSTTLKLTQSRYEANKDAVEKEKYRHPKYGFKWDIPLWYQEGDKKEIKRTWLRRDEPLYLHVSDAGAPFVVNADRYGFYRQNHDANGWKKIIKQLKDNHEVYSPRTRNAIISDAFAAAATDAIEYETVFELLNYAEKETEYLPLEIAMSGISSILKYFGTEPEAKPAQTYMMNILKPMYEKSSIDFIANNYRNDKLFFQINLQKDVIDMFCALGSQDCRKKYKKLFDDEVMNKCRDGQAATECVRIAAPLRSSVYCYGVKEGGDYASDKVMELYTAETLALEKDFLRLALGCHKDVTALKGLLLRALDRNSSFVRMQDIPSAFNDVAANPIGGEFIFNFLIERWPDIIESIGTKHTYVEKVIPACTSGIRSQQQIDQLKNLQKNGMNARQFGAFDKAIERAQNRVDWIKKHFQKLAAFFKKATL

Another test concerns the target T2, rH11-1 (Haemonchus contortus, UniProt Q9U5P6).
T2 construct: gene h11-1; soluble, expressed in C. elegans; N-terminal transmembrane domain (35 aa) replaced by Hmcp-6 signal peptide; C-terminal 10 aa His tag; cobalt resin

The next test deals with T3, rH11-5 (Haemonchus contortus, UniProt V5K5H8).
T3 construct: soluble, expressed in C. elegans; N-terminal transmembrane domain (35 aa) replaced by Hmcp-6 signal peptide; C-terminal 10 aa His tag; cobalt resin
T3 sequence (V5K5H8 entry or part of it): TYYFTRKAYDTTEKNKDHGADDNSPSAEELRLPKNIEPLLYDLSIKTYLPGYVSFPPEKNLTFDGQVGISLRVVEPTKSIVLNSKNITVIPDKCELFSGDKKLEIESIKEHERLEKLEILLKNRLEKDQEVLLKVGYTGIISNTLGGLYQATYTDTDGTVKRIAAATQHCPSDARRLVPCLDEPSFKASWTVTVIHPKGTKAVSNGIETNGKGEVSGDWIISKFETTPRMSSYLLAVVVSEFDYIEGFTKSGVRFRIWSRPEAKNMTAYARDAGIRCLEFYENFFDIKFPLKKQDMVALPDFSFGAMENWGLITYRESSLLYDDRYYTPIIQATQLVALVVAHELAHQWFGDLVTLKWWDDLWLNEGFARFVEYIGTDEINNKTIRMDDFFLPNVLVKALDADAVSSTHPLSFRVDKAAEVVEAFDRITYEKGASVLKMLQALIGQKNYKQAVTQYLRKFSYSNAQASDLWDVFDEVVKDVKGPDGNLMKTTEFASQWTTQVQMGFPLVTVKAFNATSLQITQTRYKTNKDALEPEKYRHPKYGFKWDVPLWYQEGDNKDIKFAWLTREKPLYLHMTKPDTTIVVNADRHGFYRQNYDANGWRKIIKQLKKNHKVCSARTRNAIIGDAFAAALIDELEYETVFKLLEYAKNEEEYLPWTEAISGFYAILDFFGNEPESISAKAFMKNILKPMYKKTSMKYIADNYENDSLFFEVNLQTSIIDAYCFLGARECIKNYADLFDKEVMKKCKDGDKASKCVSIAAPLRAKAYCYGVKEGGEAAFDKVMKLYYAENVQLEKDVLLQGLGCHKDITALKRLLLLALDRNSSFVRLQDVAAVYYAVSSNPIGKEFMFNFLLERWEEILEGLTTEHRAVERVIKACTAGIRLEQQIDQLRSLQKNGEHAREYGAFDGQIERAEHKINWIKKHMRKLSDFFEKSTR

Another test deals with T4, rH11-4 (Haemonchus contortus, UniProt Q967C6).
T4 construct: gene h11-4; soluble, expressed in C. elegans; N-terminal transmembrane domain (35 aa) replaced by Hmcp-6 signal peptide; C-terminal 10 aa His tag; N-glycosylated; cobalt resin
T4 sequence (Q967C6 entry or part of it): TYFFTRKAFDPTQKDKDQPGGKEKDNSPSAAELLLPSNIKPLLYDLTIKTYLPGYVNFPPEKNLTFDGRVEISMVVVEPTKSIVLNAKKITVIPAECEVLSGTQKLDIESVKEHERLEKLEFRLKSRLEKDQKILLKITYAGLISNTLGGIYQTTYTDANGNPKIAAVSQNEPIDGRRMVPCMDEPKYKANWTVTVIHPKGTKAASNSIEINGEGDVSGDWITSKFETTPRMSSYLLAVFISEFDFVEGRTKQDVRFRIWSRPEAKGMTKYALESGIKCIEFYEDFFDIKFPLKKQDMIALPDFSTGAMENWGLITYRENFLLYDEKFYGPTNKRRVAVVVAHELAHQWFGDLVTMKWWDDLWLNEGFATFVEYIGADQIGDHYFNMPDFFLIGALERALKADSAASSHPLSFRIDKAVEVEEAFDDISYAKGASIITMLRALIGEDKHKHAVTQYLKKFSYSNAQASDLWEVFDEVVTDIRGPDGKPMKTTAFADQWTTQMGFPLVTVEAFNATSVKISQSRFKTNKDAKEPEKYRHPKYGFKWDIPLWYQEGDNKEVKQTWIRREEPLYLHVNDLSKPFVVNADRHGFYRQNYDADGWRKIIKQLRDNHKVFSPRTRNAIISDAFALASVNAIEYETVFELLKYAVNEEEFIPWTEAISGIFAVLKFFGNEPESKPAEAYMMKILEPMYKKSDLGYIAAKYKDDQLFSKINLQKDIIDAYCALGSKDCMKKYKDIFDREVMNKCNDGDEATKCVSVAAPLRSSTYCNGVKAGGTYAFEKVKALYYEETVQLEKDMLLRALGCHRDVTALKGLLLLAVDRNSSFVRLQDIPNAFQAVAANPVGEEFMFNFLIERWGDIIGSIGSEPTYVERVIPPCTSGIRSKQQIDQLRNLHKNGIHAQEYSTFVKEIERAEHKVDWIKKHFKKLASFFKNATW

T2 sequence (Q9U5P6 entry or part of it): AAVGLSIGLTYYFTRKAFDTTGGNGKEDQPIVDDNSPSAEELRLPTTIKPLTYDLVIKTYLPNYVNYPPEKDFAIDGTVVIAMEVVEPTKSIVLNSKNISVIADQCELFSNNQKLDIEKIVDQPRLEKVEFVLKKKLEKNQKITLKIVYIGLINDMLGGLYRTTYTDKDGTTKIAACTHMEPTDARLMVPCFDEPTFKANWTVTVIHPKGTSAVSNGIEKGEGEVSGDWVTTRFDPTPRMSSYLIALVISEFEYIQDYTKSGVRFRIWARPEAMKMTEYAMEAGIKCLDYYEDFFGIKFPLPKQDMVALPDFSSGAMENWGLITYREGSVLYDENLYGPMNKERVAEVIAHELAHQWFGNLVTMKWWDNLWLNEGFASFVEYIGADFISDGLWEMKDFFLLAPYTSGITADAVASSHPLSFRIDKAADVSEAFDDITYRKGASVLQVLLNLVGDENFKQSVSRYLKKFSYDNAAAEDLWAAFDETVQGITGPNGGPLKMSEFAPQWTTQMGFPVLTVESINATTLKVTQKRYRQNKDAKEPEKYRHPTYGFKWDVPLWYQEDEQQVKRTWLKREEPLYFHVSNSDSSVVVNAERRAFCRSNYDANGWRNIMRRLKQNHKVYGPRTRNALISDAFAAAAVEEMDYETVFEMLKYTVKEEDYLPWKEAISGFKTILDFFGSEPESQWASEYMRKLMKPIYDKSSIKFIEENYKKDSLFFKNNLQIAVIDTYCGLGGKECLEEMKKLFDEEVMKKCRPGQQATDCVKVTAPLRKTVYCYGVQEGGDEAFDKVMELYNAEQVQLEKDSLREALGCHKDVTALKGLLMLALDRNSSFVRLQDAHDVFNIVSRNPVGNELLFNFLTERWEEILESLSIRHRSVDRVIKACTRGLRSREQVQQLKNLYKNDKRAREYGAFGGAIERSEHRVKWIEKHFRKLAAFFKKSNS

As to `CC(C)C[C@H](N)C(=O)Nc1ccc([N+](=O)[O-])cc1` [L-leucine p-nitroanilide], the “aminopeptidase assay, absorbance at 405 nm” value on H11 (rH11, isoform H11) is “rH11-4 and rH11-5 showing greater activity than H11 and H11-1 isoforms”; at rH11-1, “rH11-4 and rH11-5 showing greater activity than H11 and H11-1 isoforms”; at rH11-5, “rH11-4 and rH11-5 showing greater activity than H11 and H11-1 isoforms”; at rH11-4, “rH11-4 and rH11-5 showing greater activity than H11 and H11-1 isoforms”.
